In publication PMC4657899, “Design, Synthesis and In Vitro Activity of Anticancer Styrylquinolines. The p53 Independent Mechanism of Action” (PLoS ONE, 2015):

Tests used:
HCT116 (p53+/+) = test: MTS anti-proliferative assay, HCT116 (p53+/+); assay type: cell-based, human; conditions: mean ± SD
Experimental: (§1) The human colon adenocarcinoma cell line HCT116 along with wild type p53 (p53^+/+) were obtained from the ATCC. The normal human fibroblast cell line GM 07492 and HCT116 with a p53 deletion (p53^-/-) were kindly provided by prof. M. Rusin from Maria Sklodowska-Curie Memorial Cancer Center and Institute of Oncology in Gliwice, Poland. Cells were grown as monolayer cultures in 75 cm^2 flasks (Nunc) in Dulbecco’s modified Eagle’s medium with an antibiotic gentamicin (200 μL/100 mL medium). DMEM for HCT116 were supplemented with 12% heat-inactivated fetal bovine serum (Gibco) and for GM 07492 with 15% fetal bovine serum (Gibco). Cells were cultured under standard conditions at 37°C in a humidified atmosphere at 5% CO2.
(§2) The cells were seeded in 96-well plates 24 h before the addition of the compounds that were tested. The assay was performed following a 72 h incubation with varying concentrations of the agents that were tested. The results were calculated as IC50 values (using GraphPad Prism 5). Each individual compound was tested in triplicate in a single experiment with each experiment being repeated three times. After a 72 h incubation with the compounds that were tested, 20 μL of The CellTiter 96®AQueous One Solution—MTS (Promega) solution was added to each well (with 100 μL DMEM without phenol red) and incubated for 1 h at 37°C. The optical densities of the samples were analyzed at 490 nm. Results were expressed as a percentage of the control.

HCT116 (p53-/-) = test: MTS anti-proliferative assay, HCT116 (p53-/-); assay type: cell-based, human; conditions: for IC50: MTS, 72 h incubation, mean ± SD
Experimental: as §1, §2

GM 07492 = test: MTS cytotoxicity assay, normal fibroblasts GM 07492; assay type: cell-based; conditions: 72 h incubation, normal human fibroblasts, mean ± SD
Experimental: as §1, §2

HCT116 +/+ = test: Trypan blue staining test, HCT116 +/+; assay type: cell-based, human; conditions: S2 Table, trypan blue cell counting, 72 h
Experimental: (§3) The cells were seeded in 3 cm Petri dishes (Nunc) and incubated at 37°C. After 24h, solutions […]
(§4) a 72 h incubation with tested compounds, the cells were trypsinize d with 0.05% Trypsin -EDTA solution (Sigma). Then, 90µl of suspension cells transferred into 96 -well plate containing 10µl Trypan blue reagent in wells. The cells were counted under an optical inverted microscope Olympus CKX31. The results from three independent experiment were calculated as IC 50 values using GraphPad Prism 5 software.

HCT116 -/- = test: Trypan blue staining test, HCT116 -/-; assay type: cell-based, human; conditions: S2 Table, trypan blue cell counting, 72 h
Experimental: as §3, §4

Calf-thymus DNA (CT-DNA) = test: Spectrophotometric DNA binding (intercalation) study with CT-DNA
Experimental: For the DNA binding studies, Calf-thymus DNA (CT-DNA) was purchased from Sigma Aldrich. The lyophilized CT-DNA was dissolved in 10 mM Tris-HCl, pH 7.9, mixed gently and left overnight at 4°C. Then, the concentration of CT-DNA was determined from the absorbance at 260 nm using an extinction coefficient of 6600 M^-1cm^-1. […] Afterwards, 18 μM CT-DNA was added to the prepared solutions and were incubated for 1.5 h at 37°C with occasional vortexing. Absorption spectra were measured using a Hitachi U-2900 spectrophotometer in range of 200–600 nm. All absorption spectra were imported and compared in OriginPro 8.0.

[1] = Homo sapiens, HCT-116, 72 h incubation

SMILES	IC50 (HCT116 (p53+/+); 72 h incubation)	IC50 (HCT116 (p53-/-))	IC50 (HCT116 (p53+/+); [1])	IC50 (HCT116 (p53-/-); Homo sapiens, HCT-116)	melting point	further results
Oc1ccccc1C=Cc1ccc2ccccc2n1 [1a]	17.4 ± 2.2 µM	14.1 ± 2.24 µM				IC50 (GM 07492): > 25 µM
CCOc1ccccc1C=Cc1ccc2c(Cl)cc(Cl)c(O)c2n1 [1c, 5,7-Dichloro-2 – [2-(2-ethoxyphenyl)vinyl]quinolin-8-ol]			5.93 ± 0.97 µM	3.25 ± 1.81 µM	100 to 102 °C	IC50 (GM 07492; Fibroblast): > 25 µM
CCOc1ccc(C=Cc2ccc3ccccc3n2)cc1 [2a]			> 25 µM	> 25 µM		
CC(=O)Oc1ccccc1C=Cc1ccc2cccc(OC(C)=O)c2n1 [2b]	8.08 ± 0.56 µM	14.7 ± 1.74 µM				IC50 (GM 07492): 6.92 ± 1.72 µM
Oc1c(Cl)cc(Cl)c2ccc(C=Cc3ccccc3Cl)nc12 [2c, 5,7-Dichloro-2 – [2-(2-chlorophenyl)vinyl]quinolin-8-ol]					205 to 210 °C	
CCCCOc1ccc(C=Cc2ccc3ccccc3n2)cc1 [3a]	> 25 µM	> 25 µM				IC50 (HCT116 +/+): > 25 µM; IC50 (HCT116 -/-): > 25 µM
CC(=O)Oc1ccccc1C=Cc1ccc2cccc(O)c2n1 [3b]	7.32 ± 1.01 µM	13.5 ± 0.81 µM				IC50 (GM 07492): > 25 µM
CCOc1ccc(C=Cc2ccc3c(Cl)cc(Cl)c(O)c3n2)cc1 [3c, 5,7-Dichloro-2 – [2-(4-ethoxyphenyl)vinyl]quinolin-8-ol]			2.23 µM	3.53 ± 0.83 µM	156 to 158 °C	IC50 (GM 07492; Fibroblast): > 25 µM; % hypochromism (Calf-thymus DNA (CT-DNA); 18 μM CT-DNA, 1.5 h 37°C, Tris-HCl pH 7.9, at the (first) absorption band (CP-31398: 312)): 11,6%; Δε (Calf-thymus DNA (CT-DNA); 18 μM CT-DNA, at the (first) absorption band (CP-31398: 312)): 557,8 M−1 cm−1; shift of the wavelength of maximum absorption, alone vs DNA-bound (Calf-thymus DNA (CT-DNA); S3 Table, 18 μM CT-DNA): 8; Changes in absorbance (Calf-thymus DNA (CT-DNA); S3 Table, with CT-DNA): hypochromism
CC(=O)Oc1cccc(C=Cc2ccc3cccc(O)c3n2)c1 [4b]	7.88 ± 1.98 µM	10.7 ± 3.76 µM				IC50 (GM 07492): > 25 µM
COc1cc(C=Cc2ccc3cccc(O)c3n2)cc(OC(C)=O)c1OC(C)=O [7b]			> 25 µM	> 25 µM	172 °C	
CC(=O)Oc1ccc(C=Cc2ccc3cccc(OC(C)=O)c3n2)c(OC(C)=O)c1 [8b]	> 25 µM	> 25 µM				
Oc1cc(O)c(C=Cc2ccc3cccc(O)c3n2)c(O)c1 [9b]	> 25 µM	> 25 µM				
CC(=O)Oc1cc(OC(C)=O)c(C=Cc2ccc3cccc(OC(C)=O)c3n2)c(OC(C)=O)c1 [10b]			> 25 µM	> 25 µM	189 °C	
Oc1cccc2ccc(C=Cc3ccccc3F)nc12 [11b]			15.4 ± 2.46 µM	8.38 ± 1.12 µM	239 °C	times more effective against HCT116 (p53-/-) than against wild type cells (HCT116 (p53-/-); ratio of MTS IC50 values): 2–3 times; IC50 (GM 07492; Fibroblast): > 25 µM
